One may read the IC50 as the concentration that gives 50% inhibition.

From publication PMC11017246, “Discovery of GLPG2737, a Potent Type 2 Corrector of CFTR for the Treatment of Cystic Fibrosis in Combination with a Potentiator and a Type 1 Co-corrector” (Journal of Medicinal Chemistry, 2024) come the findings set out here.

Series [1] in a line: Liver microsomal stability, rat. Type of series: in vitro ADME. The settings on record: rat; matrix not given; read-out: Clintr,unbound rat (converted). The protocol: (§1) The microsomal stability assay was performed by incubation of test compound at 1 μM, 0.2% DMSO in phosphate buffer with microsomes (0.5 mg/mL) from mouse, rat, dog, or human (Xeno-Tech, Kansas City, KS, USA), and cofactors with final concentrations of 0.6 U/mL glucose-6- phosphate dehydrogenase, 3.3 mM MgCl2, 3.3 mM glucose-6-phosphate, and 1.3 mM nicotinamide adenine dinucleotide phosphate (NADP)+. Before addition of the microsomes (time zero) and after 30 min of incubation at 37 °C with shaking, the reaction was stopped, and proteins were precipitated with an excess of acetonitrile containing an internal standard. The samples were mixed, centrifuged, and filtered, and the supernatant was analyzed by liquid chromatography–mass spectrometry/mass spectrometry (LC–MS/MS). The instrument responses (peak areas/IS peak areas) were referenced to the zero-time point samples (considered as 100%) to determine the percentage of compound remaining. In vitro unbound intrinsic clearance (CLint,u) was calculated from the half-life using the following equations: [drawing 1] [drawing 2] To take into account nonspecific binding, scaled CLint values were corrected with the fraction unbound in microsomes (fu, mic). [drawing 3]
(§2) Equilibrium dialysis is a technique used to measure microsomal binding. Briefly, the assay was performed in a 96-well Teflon dialysis unit (Dialysis Device), where each well consists of two chambers separated by a dialysis membrane (membrane strips, MW cutoff 12–14 kDa, HTDialysis). Inactivated liver microsomes (pooled human liver microsomes, Xenotech, protein concentration of 0.5 mg/mL) spiked with a compound (1 μM final concentration, 0.5% DMSO) were added to one chamber and buffer solution (50 mM PBS Buffer) was added to the other side of the well. Each compound was analyzed in duplicate for 4 h at 37 °C. At the end of incubation, both chambers were sampled and analyzed by LC-MS/MS. The unbound microsomal fraction (fu, mic) was calculated as the concentration in buffer divided by the total concentration in the microsomal side. Positive controls included in this assay are terfenadine and verapamil.
On the technique in general: Liver microsomes are a subcellular fraction often used to study metabolism.

Series [2] is described as follows: Liver microsomal stability, human. Type of series: in vitro ADME. The settings on record: human; matrix not given; read-out: Clintr,unbound human (converted). How it is done: as §1, §2
The nature of series [3]: Liver microsomal stability, dog. Type of series: in vitro ADME. The note with it: matrix not given, read-out: Clintr,unbound dog. How it is done: as §1, with “The instrument responses (peak areas/IS peak areas) were referenced to the zero-time point samples (considered as 100%) to determine the percentage of compound remaining.” left out, “[drawing 2] To take into account nonspecific binding, scaled CLint values were corrected with the fraction unbound in microsomes (fu, mic). [drawing 3]” left out
(§3) Equilibrium dialysis is a technique used to measure microsomal binding. […] Each compound was analyzed in duplicate for 4 h at 37 °C. At the end of incubation, both chambers were sampled and analyzed by LC-MS/MS. The unbound microsomal fraction (fu, mic) was calculated as the concentration in buffer divided by the total concentration in the microsomal side. […]

A short description of series [4]: Liver microsomal stability, monkey. The note with it: matrix not given, read-out: Clintr,unbound monkey (converted). Type of series: in vitro ADME. The protocol: as §1, with “The instrument responses (peak areas/IS peak areas) were referenced to the zero-time point samples (considered as 100%) to determine the percentage of compound remaining.” left out, “[drawing 2] To take into account nonspecific binding, scaled CLint values were corrected with the fraction unbound in microsomes (fu, mic). [drawing 3]” left out
as §3

A further series has as its target T1, CYP2C9 (Homo sapiens, UniProt P11712).
T1 construct: tissue BD Gentest; host or cells: human liver microsomes
The experiment in a line: CYP reversible inhibition in HLM, CYP2C9. Type of series: in vitro ADME. The settings on record: probe diclofenac; read-out: CYP inhibition in HLM IC50, CYP2C9. The protocol:
Test compounds were diluted in methanol and then added to mixture containing 50 mM potassium phosphate buffer, pH 7.4, human liver microsomes (BD Gentest) and probe substrate. After prewarming for 5 min at 37 °C, the reaction was started by adding cofactor mix (7.65 mg/mL glucose-6-phosphate, 1.7 mg/mL NADP, 6 U/mL of glucose-6-phosphate dehydrogenase), resulting in seven final concentrations of test compounds in the range 0.14–100 μM (2% methanol). Isoform specific conditions regarding probe substrate and microsomal protein concentrations are available in Table 2. Final concentrations of cofactor mix components were as follows: 1.56 mg/mL glucose-6-phosphate, 0.34 mg/mL NADP, and 1.2 U/mL glucose-6-phosphate dehydrogenase. After incubation at 37 °C, the reaction was terminated with acetonitrile:methanol (2:1) solution with internal standard. Samples were centrifuged, and the supernatant fractions were analyzed by LC-MS/MS. The instrument responses (test compounds and internal standard peak areas) were referenced to those for solvent controls (assumed as 100%) in order to determine the percentage reduction in probe metabolism. Percent of control activity vs concentration plots were generated and fitted using GraphPad Prism software to generate IC50.

Series [5] is described as follows: MDCK-MDR1 permeability assay. Type of series: in vitro ADME, canine. The settings on record: dog, MDCK-MDR1, pH 7.4; A to B, n = 2; read-out: MDCK-MDR1 PA2B. The protocol: (§4) MDCKII-MDR1 cells were seeded on Millicell-24 cell culture insert plate assemblies at a final concentration of 0.12 × 10^6 cells/well. Cells were cultured in a CO2 incubator for 3–4 days prior to experiment start with media replacement 24 h post seeding. On the day of the experiment, cells were preincubated for 45 min with Dulbecco’s Phosphate Buffer saline (D-PBS, pH7.4), containing 1% of DMSO. Compounds were prepared in D-PBS, pH 7.4 and added to either the apical or basolateral chambers of the Millicell cell culture insert plates assembly at a final concentration of 10 μM with a final DMSO concentration of 1%. Lucifer Yellow was added to all donor buffer solutions in order to assess integrity of the cell monolayers by monitoring Lucifer Yellow permeation. […] After brief mixing and centrifugation, the supernatant was analyzed by LC-MS/MS. The apparent permeability coefficient (Papp) was calculated according to the following equation: Papp = (dQ/dT)(1/C0)(1/A), where dQ/dT = permeability rate; C0 = initial concentration in donor compartment; A = surface area of the cell monolayer (0.7 cm^2). […] The efflux ratio is calculated as Papp from B to A divided by Papp from A to B. Passive permeability (×10^–6 cm/s) is calculated by the formula: Papp from A to B × efflux ratio + 1/2.

Another series deals with MDCKII-MDR1 cells. In words: MDCK-MDR1 permeability assay. Type of series: in vitro ADME, canine. The settings on record: A to B, n = 2. The protocol: as §4
Another series concerns the target T2, (h)H1 (Homo sapiens, UniProt P35367).
T2 construct: purchased Eurofins
In words: Radioligand binding, (h)H1 (Eurofins panel). The note with it: read-out: IC50, inhibition of radioligand binding to (h)H1.

The target in the next series is hERG (Homo sapiens, UniProt Q12809). In words: hERG manual patch clamp test. Type of series: cell-based. For orientation: hERG is a cardiac potassium channel; its block is linked to QT prolongation.
Sequence of hERG (Q12809 whole entry): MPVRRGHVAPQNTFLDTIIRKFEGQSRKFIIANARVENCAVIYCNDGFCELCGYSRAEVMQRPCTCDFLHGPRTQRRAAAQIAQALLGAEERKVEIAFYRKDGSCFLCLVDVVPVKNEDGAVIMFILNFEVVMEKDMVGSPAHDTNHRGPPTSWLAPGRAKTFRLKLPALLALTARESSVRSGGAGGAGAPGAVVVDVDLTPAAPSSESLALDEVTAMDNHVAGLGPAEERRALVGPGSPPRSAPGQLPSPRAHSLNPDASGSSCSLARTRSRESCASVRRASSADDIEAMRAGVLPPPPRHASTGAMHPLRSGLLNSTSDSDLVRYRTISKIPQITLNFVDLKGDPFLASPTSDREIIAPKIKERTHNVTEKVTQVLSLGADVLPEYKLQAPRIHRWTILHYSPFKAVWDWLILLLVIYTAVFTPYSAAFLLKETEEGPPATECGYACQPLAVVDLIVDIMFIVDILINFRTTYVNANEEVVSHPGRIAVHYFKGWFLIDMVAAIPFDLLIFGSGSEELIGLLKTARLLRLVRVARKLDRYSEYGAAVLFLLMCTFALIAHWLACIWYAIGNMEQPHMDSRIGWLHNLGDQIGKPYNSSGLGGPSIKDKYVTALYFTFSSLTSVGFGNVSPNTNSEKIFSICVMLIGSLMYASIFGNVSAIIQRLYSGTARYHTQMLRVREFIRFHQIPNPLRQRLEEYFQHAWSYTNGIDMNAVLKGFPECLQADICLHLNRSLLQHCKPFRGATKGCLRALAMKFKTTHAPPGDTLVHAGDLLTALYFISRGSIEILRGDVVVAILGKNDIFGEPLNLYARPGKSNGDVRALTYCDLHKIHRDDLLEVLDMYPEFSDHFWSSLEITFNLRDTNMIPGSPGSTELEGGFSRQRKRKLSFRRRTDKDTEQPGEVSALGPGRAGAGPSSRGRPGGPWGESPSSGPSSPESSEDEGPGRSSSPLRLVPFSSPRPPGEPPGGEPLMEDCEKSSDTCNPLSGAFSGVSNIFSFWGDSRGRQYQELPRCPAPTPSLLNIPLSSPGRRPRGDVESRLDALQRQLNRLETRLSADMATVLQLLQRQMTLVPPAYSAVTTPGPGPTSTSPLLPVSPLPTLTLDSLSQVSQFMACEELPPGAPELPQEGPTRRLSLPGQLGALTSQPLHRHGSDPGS

The structures appear in SMILES notation.

T2 sequence (P35367 whole entry): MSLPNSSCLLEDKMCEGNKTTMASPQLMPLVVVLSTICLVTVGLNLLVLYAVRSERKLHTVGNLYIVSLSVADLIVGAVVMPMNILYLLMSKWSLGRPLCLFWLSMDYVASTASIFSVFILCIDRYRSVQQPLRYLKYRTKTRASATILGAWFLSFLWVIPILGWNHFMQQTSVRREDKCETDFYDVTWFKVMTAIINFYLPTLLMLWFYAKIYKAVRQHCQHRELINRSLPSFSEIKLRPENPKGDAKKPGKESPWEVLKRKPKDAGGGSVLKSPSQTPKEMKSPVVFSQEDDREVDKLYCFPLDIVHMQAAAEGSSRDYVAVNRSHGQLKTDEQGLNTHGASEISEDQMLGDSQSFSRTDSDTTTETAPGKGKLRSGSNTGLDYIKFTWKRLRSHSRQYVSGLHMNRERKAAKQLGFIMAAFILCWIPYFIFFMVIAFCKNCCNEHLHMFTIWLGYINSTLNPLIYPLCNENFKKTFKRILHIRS
T1 sequence (P11712 whole entry): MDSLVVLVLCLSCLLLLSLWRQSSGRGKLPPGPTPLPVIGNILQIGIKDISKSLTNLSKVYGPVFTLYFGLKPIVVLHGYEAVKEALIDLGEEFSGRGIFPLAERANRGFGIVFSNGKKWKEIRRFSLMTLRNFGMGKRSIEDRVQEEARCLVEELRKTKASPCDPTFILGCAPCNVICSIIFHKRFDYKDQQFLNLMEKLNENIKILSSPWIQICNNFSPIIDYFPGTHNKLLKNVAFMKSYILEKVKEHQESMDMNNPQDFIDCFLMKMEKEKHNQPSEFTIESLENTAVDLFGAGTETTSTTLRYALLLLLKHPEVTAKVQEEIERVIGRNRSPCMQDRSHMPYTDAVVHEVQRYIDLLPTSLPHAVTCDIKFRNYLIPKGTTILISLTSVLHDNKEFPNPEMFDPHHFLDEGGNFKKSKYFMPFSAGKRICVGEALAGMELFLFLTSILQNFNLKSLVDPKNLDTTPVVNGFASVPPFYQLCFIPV

Turning to `COC1CCN(C2CCN(c3cc(C(=O)NS(=O)(=O)N(C)C)nc4c3c(C3CCC3)nn4-c3ccc(F)cc3)CC2)CC1` [Compound 52, 3-Cyclobutyl-N-(N,N-dimethylsulfamoyl)-1-(4-fluorophenyl)-4-(4-methoxy-[1,4′-bipiperidin]-1′-yl)-1H-pyrazolo[3,4-b]pyridine-6-carboxamide], the CLint scaled at 1 μM was 82.3 mL/min/kg in series [1], 66.7 mL/min/kg in series [2], < 32 mL/min/kg in [3] and 347 mL/min/kg in series [4]. The IC50 on CYP2C9 came to 1.4 µM; at (h)H1, 8 µM. In addition, the Papp A→B at 1 h, 10 μM in [5] stood at 5.45 ×10⁻⁶ cm/s. Also, the “MDCK-MDR1 PA2B” value in the series with MDCKII-MDR1 cells is on record as 5.45 cm × 10^–6 s^–1. For the same compound, the hERG inhibition result at hERG was “No significant inhibition”.
